# Test results as given in patent US20240376100A1 (Redona Therapeutics, Inc., priority 2021, published 2024).
# Counter-ions that a name gives are not always drawn.
# Target: PAPD5 enzyme (Homo sapiens, UniProt Q8NDF8)
# Assay: PAPD5 assay (AMP incorporation onto 3'-terminus of RNA substrate, fluorescence quench)
# Assay type: biochemical
# Details: PAPD5 protein 0.3 nM, ATP 50 μM, 30 minutes preincubation, room temperature; read-out: Potency PAPD5 IC50
# Experimental: The purpose of the PAPD5 assay is to determine compound potency against PAPD5 enzyme through the measurement of IC50. Compound inhibition is measured as a function of AMP incorporation onto the 3′-terminus of an RNA substrate in the presence of active PAPD5, ATP, and inhibitor. The PAPD5 assay was done in a black, non-binding, 384 well plate (Corning #3575). All steps were performed at room temperature. For a typical assay, a 40 ul aliquot of assay buffer (50 mM HEPES pH 7.3, 20 mM KCl, 10 mM MgCl2, 10 mMM DTT, 0.01% Triton X-100, 40 U/ml RNAsin (Promega)) containing PAPD5 protein (final 10 concentration: 0.3 nM) and ATP (final concentration 50 μM) was added to each well. Next, 1 ul of compound in 100% DMSO is transferred from a compound dilution plate in which the compound is serially diluted. The plate was placed on a plate shaker for 30 seconds to produce mixing, then incubated for 30 minutes. Next, 10 ul of a 5× mix of RNA substrate (5′-fluorescein-AUAGAG-3′ (IDT)) and a DNA oligonucleotide that is complementary to the AMP modified RNA product (5′-TCTCTATT-3′-TAMRA, wherein the first two nucleotides are locked nucleic acids (IDT)) was added (final concentrations: 5 nM and 20 nM, respectively). The plate was placed on a plate shaker for 30 seconds to produce mixing then immediately placed in a Biotek Cytation 5 plate reader, and the time-dependent decrease in fluorescein fluorescence resulting from annealing of the TAMRA labeled quenching probe was recorded, using the kinetics mode of the reader (typical run time is 90 minutes). Reaction rates were obtained using linear fits to the early portion of progress curves. IC50 values were calculated using a four-parameter fit with 100% enzyme activity determined from the DMSO control and 0% activity from control samples lacking UTP.
# “+” represents an IC50 value that is greater than 50 PM; “++” represents an IC50 value that is greater than 10 μM and equal to or less than 50 μM; “+++” represents an IC50 value that is greater than 1 μM and equal to or less than 10 μM; and “++++” represents an IC50 value that is equal to or less than 1 μM.
# Chain of PAPD5 enzyme (Q8NDF8 whole entry): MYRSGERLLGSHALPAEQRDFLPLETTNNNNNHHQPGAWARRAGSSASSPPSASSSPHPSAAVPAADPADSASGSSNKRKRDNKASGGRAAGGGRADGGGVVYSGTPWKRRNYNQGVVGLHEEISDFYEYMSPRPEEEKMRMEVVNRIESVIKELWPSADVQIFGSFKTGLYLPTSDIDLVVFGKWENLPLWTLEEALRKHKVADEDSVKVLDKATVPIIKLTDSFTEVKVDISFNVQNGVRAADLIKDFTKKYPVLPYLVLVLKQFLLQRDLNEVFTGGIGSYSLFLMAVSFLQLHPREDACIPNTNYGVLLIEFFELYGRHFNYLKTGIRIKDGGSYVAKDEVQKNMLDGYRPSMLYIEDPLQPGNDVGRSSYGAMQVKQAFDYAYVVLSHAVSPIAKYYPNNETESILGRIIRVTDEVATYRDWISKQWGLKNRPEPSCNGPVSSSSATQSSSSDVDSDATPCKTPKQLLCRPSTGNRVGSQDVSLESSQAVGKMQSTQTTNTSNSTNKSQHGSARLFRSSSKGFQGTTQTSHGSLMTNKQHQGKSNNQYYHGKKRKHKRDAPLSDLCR
row,IC50 [nM],Compound
1,≤ 1000,"O=C(O)c1cn(-c2cnccn2)c2nc(N3Cc4cccnc4C3)c(Cl)cc2c1=O [Example 2, 6-chloro-4-oxo-1-(pyrazin-2-yl)-7{5H,6H,7H pyrrolo[3,4-b]pyridin-6-yl}-1,4-dihydro-1,8-naphthyridine-3-carboxylic acid]"
2,≤ 1000,"O=C(O)c1cn(-c2ccc(O)c(F)c2)c2cc(N3Cc4cccnc4C3)c(Cl)cc2c1=O [Example 3, 6-chloro-1-(3-fluoro-4-hydroxyphenyl)-4-oxo-7-{5H,6H,7H-pyrrolo[3,4-b]pyridin-6-yl}-1,4-dihydroquinoline-3-carboxylic acid]"
3,≤ 1000,"Cc1cc(N)ncc1-n1cc(C(=O)O)c(=O)c2cc(Cl)c(N3Cc4cccnc4C3)cc21 [Example 5, 1-(6-amino-4-methylpyridin-3-yl)-6-chloro-4-oxo-7-{5H,6H,7H-pyrrolo[3,4-b]pyridin-6-yl}-1,4-dihydroquinoline-3-carboxylicacid hydrochloride]"
4,≤ 1000,"O=C(O)c1cn(CC2CCC2)c2nc(N3Cc4cccnc4C3)c(Cl)cc2c1=O [Example 6, 6-chloro-1-(cyclobutylmethyl)-4-oxo-7-{5H,6H,7H-pyrrolo[3,4-b]pyridin-6-yl}-1,4-dihydro-1,8-naphthyridine-3-carboxylic acid]"
5,≤ 1000,"N#Cc1cc2c(=O)c(C(=O)O)cn(CC3CCC3)c2nc1N1Cc2cccnc2C1 [Example 7, 6-cyano-1-(cyclobutylmethyl)-4-oxo-7-{5H,6H,7H-pyrrolo[3,4-b]pyridin-6-yl}-1,4-dihydro-1,8-naphthyridine-3-carboxylic acid]"
6,≤ 1000,"O=C(O)c1cn(-c2ccc(O)cc2F)c2cc(-n3ncc4cccc(Br)c43)c(F)cc2c1=O [Example 9, 7-(7-bromo-1H-indazol-1-yl)-6-fluoro-1-(2-fluoro-4-hydroxyphenyl)-4-oxo-1,4-dihydroquinoline-3-carboxylic acid]"
7,≤ 1000,"O=C(O)c1cn(-c2ccc(O)cc2F)c2cc(-n3ncc4cc(Cl)cc(Cl)c43)c(F)cc2c1=O [Example 10, 7-(5,7-dichloro-1H-indazol-1-yl)-6-fluoro-1-(2-fluoro-4-hydroxyphenyl)-4-oxo-1,4-dihydroquinoline-3-carboxylic acid]"
8,≤ 1000,"Cc1nn(-c2cc3c(cc2F)c(=O)c(C(=O)O)cn3-c2ccc(O)cc2F)cc1Br [Example 11, 7-(4-bromo-3-methyl-1H-pyrazol-1-yl)-6-fluoro-1-(2-fluoro-4-hydroxyphenyl)-4-oxo-1,4-dihydroquinoline-3-carboxylic acid]"
9,≤ 1000,"O=C(O)c1cn(-c2ccc(O)cc2F)c2cc(-n3ccc(Cl)n3)c(F)cc2c1=O [Example 12, 7-(3-chloro-1H-pyrazol-1-yl)-6-fluoro-1-(2-fluoro-4-hydroxyphenyl)-4-oxo-1,4-dihydroquinoline-3-carboxylic acid]"
10,≤ 1000,"COc1ccc2c(c1)CN(c1cc3c(cc1F)c(=O)c(C(=O)O)cn3-c1ccc(O)cc1F)C2 [Example 14, 6-fluoro-1-(2-fluoro-4-hydroxyphenyl)-7-(5-methoxyisoindolin-2-yl)-4-oxo-1,4-dihydroquinoline-3-carboxylic acid]"
11,≤ 1000,"O=C(O)c1cn(-c2ccc(O)cc2F)c2cc(N3Cc4cccc(F)c4C3)c(F)cc2c1=O [Example 15, 6-fluoro-1-(2-fluoro-4-hydroxyphenyl)-7-(4-fluoroisoindolin-2-yl)-4-oxo-1,4-dihydroquinoline-3-carboxylic acid]"
12,≤ 1000,"O=C(O)c1cn(-c2ccc(O)cc2)c2cc(N3Cc4cccnc4C3)c(Cl)cc2c1=O [Example 16, 6-chloro-7-(5,7-dihydro-6H-pyrrolo[3,4-b]pyridin-6-yl)-1-(4-hydroxyphenyl)-4-oxo-1,4-dihydroquinoline-3-carboxylic acid]"
13,≤ 1000,"O=C(O)c1cn(-c2ccc(CO)cc2F)c2cc(N3Cc4cccnc4C3)c(Cl)cc2c1=O [Example 17, 6-chloro-7-(5,7-dihydro-6H-pyrrolo[3,4-b]pyridin-6-yl)-1-(2-fluoro-4-(hydroxymethyl)phenyl)-4-oxo-1,4-dihydroquinoline-3-carboxylic acid]"
14,≤ 1000,"O=C(O)c1cn(-c2ccc(O)cc2)c2cc(N3Cc4cccnc4C3)c(F)cc2c1=O [Example 18, 7-(5,7-dihydro-6H-pyrrolo[3,4-b]pyridin-6-yl)-6-fluoro-1-(4-hydroxyphenyl)-4-oxo-1,4-dihydroquinoline-3-carboxylic acid]"
15,≤ 1000,"O=C(O)c1cn(-c2ccc(O)cc2)c2cc(N3Cc4ccncc4C3)c(F)cc2c1=O [Example 19, 7-(1,3-dihydro-2H-pyrrolo[3,4-c]pyridin-2-yl)-6-fluoro-1-(4-hydroxyphenyl)-4-oxo-1,4-dihydroquinoline-3-carboxylic acid]"
16,≤ 1000,"O=C(O)c1cn(-c2cnccn2)c2cc(N3Cc4ccccc4C3)c(Cl)cc2c1=O [Example 21, 6-chloro-7-(isoindolin-2-yl)-4-oxo-1-(pyrazin-2-yl)-1,4-dihydroquinoline-3-carboxylic acid]"
17,≤ 1000,"CN(C)C1CN(c2ccc(-n3cc(C(=O)O)c(=O)c4cc(Cl)c(N5Cc6cccnc6C5)nc43)cn2)C1 [Example 22, 6-chloro-7-(5,7-dihydro-6H-pyrrolo[3,4-b]pyridin-6-yl)-1-(6-(3-(dimethylamino)azetidin-1-yl)pyridin-3-yl)-4-oxo-1,4-dihydro-1,8-naphthyridine-3-carboxylic acid]"
18,≤ 1000,"Nc1ncc(-n2cc(C(=O)O)c(=O)c3cc(Cl)c(N4Cc5cccnc5C4)cc32)cc1F [Example 23, 1-(6-amino-5-fluoropyridin-3-yl)-6-chloro-7-(5,7-dihydro-6H-pyrrolo-[3,4-b]pyridin-6-yl)-4-oxo-1,4-dihydroquinoline-3-carboxylic acid]"
19,≤ 1000,"Cc1nc(N)ccc1-n1cc(C(=O)O)c(=O)c2cc(Cl)c(N3Cc4cccnc4C3)cc21 [Example 24, 1-(6-amino-2-methylpyridin-3-yl)-6-chloro-7-(5,7-dihydro-6H-pyrrolo[3,4-b]pyridin-6-yl)-4-oxo-1,4-dihydroquinoline-3-carboxylic acid]"
20,≤ 1000,"Cc1cc(N2CC(N(C)C)C2)ncc1-n1cc(C(=O)O)c(=O)c2cc(Cl)c(N3Cc4cccnc4C3)cc21 [Example 25, 6-chloro-7-(5,7-dihydro-6H-pyrrolo[3,4-b]pyridin-6-yl)-1-(6-(3-(dimethylamino)azetidin-1-yl)-4-methylpyridin-3-yl)-4-oxo-1,4-dihydroquinoline-3-carboxylic acid]"
21,≤ 1000,"O=C(O)c1cn(-c2ccc(O)cc2F)c2cc(N3Cc4cccnc4C3)c(Cl)cc2c1=O [Example 27, 6-chloro-7-(5,7-dihydro-6H-pyrrolo[3,4-b]pyridin-6-yl)-1-(2-fluoro-4-hydroxyphenyl)-4-oxo-1,4-dihydroquinoline-3-carboxylic acid]"
22,≤ 1000,"O=C(O)c1cn(-c2ccc(O)c(F)c2)c2cc(N3Cc4cccnc4C3)c(F)cc2c1=O [Example 28, 7-(5,7-dihydro-6H-pyrrolo[3,4-b]pyridin-6-yl)-6-fluoro-1-(3-fluoro-4-hydroxyphenyl)-4-oxo-1,4-dihydroquinoline-3-carboxylic acid]"

row,Compound,IC50 [nM]
1,"Cc1cc(NC(=O)OC(C)(C)C)ncc1-n1cc(C(=O)O)c(=O)c2cc(Cl)c(N3Cc4cccnc4C3)cc21 [Example 4, 1-(6-{[(tert-butoxy)carbonyl]amino}-4-methylpyridin-3-yl)-6-chloro-4-oxo-7-{5H,6H,7H-pyrrolo[3,4-b]pyridin-6-yl}-1,4-dihydroquinoline-3-carboxylic acid]",≤ 1000
